The values below come from article PMC4529485 (Biochemistry, 2010).

By Kd is commonly meant the constant that tells how readily two partners part at equilibrium.

The structures appear in SMILES notation.

The assay deals with myeloperoxidase (MPO) (Homo sapiens, UniProt P05164). Kind of assay: flash photolysis/recombination kinetics. Format: binding.
myeloperoxidase (MPO), sequence (P05164 165-273): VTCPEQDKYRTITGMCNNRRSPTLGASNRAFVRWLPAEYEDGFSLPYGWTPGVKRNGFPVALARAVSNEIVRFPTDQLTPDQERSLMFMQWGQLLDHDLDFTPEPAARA
myeloperoxidase (MPO), sequence (P05164 279-745): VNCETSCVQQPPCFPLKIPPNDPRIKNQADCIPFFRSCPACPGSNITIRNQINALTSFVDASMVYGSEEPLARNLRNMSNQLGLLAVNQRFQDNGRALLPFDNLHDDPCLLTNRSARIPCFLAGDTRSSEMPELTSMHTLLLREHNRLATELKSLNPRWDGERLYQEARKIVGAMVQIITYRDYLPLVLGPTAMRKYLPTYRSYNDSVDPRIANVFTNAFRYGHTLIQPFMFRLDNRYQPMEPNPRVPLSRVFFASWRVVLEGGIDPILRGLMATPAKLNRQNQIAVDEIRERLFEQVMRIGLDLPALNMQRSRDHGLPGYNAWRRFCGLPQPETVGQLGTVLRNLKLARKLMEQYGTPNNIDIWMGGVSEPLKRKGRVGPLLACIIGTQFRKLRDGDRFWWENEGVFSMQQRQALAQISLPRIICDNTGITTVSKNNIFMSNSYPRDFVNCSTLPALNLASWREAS

Turning to `[C-]#[O+]` [CO], the equilibrium dissociation constant (Kd) came out at 1600 µM.
